Measurements as given in US6346529B1, “Antiviral therapy using thiazine dyes” (Oklahoma Medical Research Foundation, priority 1988, dated 2002).
Where two headings read alike, the source gives them in different places.

Test system: HIV (LAV-I)
Assay: HIV in human PBMC, P24 levels by EIA
Type: cell-based
Details: for inhibition at 0.001 µM / inhibition at 0.01 µM / inhibition at 1 µM / inhibition at 10 µM / inhibition at 0.1 µM / EC50: Human immunodeficiency virus 1, PBMC
Experimental: While the previous example measured RT activity, the present example utilizes a direct quantitation of a viral protein (P24) as an indicator of antiviral effectiveness.
Peripheral blood mononuclear (PBM) cells were infected with HIV and treated with methylene blue as described above. The EC50 levels were calculated from enzyme immuno-assay (EIA) measurements of viral coat protein P24. The P24-specific EIA kit was purchased from Abbott Labs.

Structure (SMILES): CN(C)c1ccc2nc3ccc(N(C)C)cc3[s+]c2c1.[Cl-] [MB, 3,7-Bis(dimethylamino)phenothiazin-5-ium chloride]
- ng P24/ml (Dark, 0.001 μM): 356.0 ng P24/ml
- ng P24/ml (Dark, 0.01 μM): 270.2 ng P24/ml
- ng P24/ml (Dark, 1 μM): 84.1 ng P24/ml
- ng P24/ml (Dark, 10 μM): 5.4 ng P24/ml
- ng P24/ml (Dark, .1 μM): 287.2 ng P24/ml
- inhibition at 0.001 µM (read-out: % Inhibition (corrected), Dark, 0.001 μM): 0.8%
- inhibition at 0.01 µM (read-out: % Inhibition (corrected), Dark, 0.01 μM): 24.7%
- inhibition at 1 µM (read-out: % Inhibition (corrected), Dark, 1 μM): 76.6%
- inhibition at 10 µM (read-out: % Inhibition (corrected), Dark, 10 μM): 98.5%
- inhibition at 0.1 µM (read-out: % Inhibition (corrected), Dark, .1 μM): 20%
- inhibition at 0.001 µM (read-out: % Inhibition (corrected), Light, 0.001 μM): -3.2%
- inhibition at 0.01 µM (read-out: % Inhibition (corrected), Light, 0.01 μM): -3.2%
- inhibition at 1 µM (read-out: % Inhibition (corrected), Light, 1 μM): 98.6%
- inhibition at 10 µM (read-out: % Inhibition (corrected), Light, 10 μM): 99.4%
- inhibition at 0.1 µM (read-out: % Inhibition (corrected), Light, .1 μM): 15.8%
- EC50 (read-out: EC50 (P24), Dark): 330 nM
- EC50 (read-out: EC50 (P24), Light): 24 nM
- ng P24/ml (Light, 0.001 μM): 370.5 ng P24/ml
- ng P24/ml (Light, 0.01 μM): 370.5 ng P24/ml
- ng P24/ml (Light, 1 μM): 5.1 ng P24/ml
- ng P24/ml (Light, 10 μM): 2.2 ng P24/ml
- ng P24/ml (Light, .1 μM): 302.2 ng P24/ml
